For orientation: Tmax means the time at which the peak concentration occurs. What is called AUC(0-t) is the area under the concentration-time curve up to a stated or last time point. A word on the Cmax: it is the highest concentration seen after dosing.

Data set [1] is described as follows: 3-period crossover study of betrixaban and digoxin alone and in combination for 7 days in healthy subjects. The data set is classed as in vivo, human. The text has this:
For each period, subjects reported to the clinical research unit on the day prior to Day 1 and remained there until Day 8 (at least until the last blood sample collection). The total duration of the study for each subject was 14 weeks: up to 4 weeks predose, approximately 1 week in the study unit on 3 occasions (with each treatment period separated by an approximate 2-week washout [i.e., 12 to 14 days]), and up to 3 weeks after the last dose until the Termination Visit. Serial blood samples and interval urine collections were obtained over the last dosing interval (Day 7 to 8) during each study period. Routine safety laboratory data was obtained at baseline during and after drug administration; additional safety laboratory and clinical data were collected.
All doses were taken under fasting conditions (no food starting from the midnight before dosing and continuing until 2 hours postdose).
Safety assessments included electrocardiogram (ECG) intervals, vital signs, laboratory parameters, and adverse events (AEs).
Mean and individual concentration-versus-time curves were plotted. […]
The 90% confidence intervals (CIs) for the difference in least squares means (test-reference, where test=drugs in combination and reference=drugs alone) was calculated for each parameter. […]

Data set [2] can be described thus: 2-way crossover study of single-dose betrixaban alone and following 5 days of ketoconazole in healthy subjects (plasma/urine PK, safety). It counts as in vivo, human. As to conditions: for Cmax: ketoconazole Cmax. The text has this: Blood and urine samples were obtained at specific time intervals after dosing for pharmacokinetic evaluations.
For each subject, the total duration of the study was up to 11 weeks (4 weeks predose, 1 week in the study unit on 2 occasions separated by a 12- to 14-day washout period, and 3 weeks after the last dose until the termination visit).
Safety was monitored by adverse event monitoring, clinical laboratory testing (hematology, serum chemistry, and urinalysis), vital sign measurements (oral temperature, respiratory rate, pulse rate, and systolic and diastolic blood pressure), electrocardiograms, and physical examinations.

Several values for one entry are separate records, joined by “and”; a condition that tells them apart may be missing. Identical values can stand only once. Entries after “also recorded” stand apart in the source; their conditions may differ.

Turning to `C[C@H]1O[C@@H](O[C@H]2[C@@H](O)C[C@H](O[C@H]3[C@@H](O)C[C@H](O[C@H]4CC[C@@]5(C)[C@H](CC[C@@H]6[C@@H]5C[C@@H](O)[C@]5(C)[C@@H](C7=CC(=O)OC7)CC[C@]65O)C4)O[C@@H]3C)O[C@@H]2C)C[C@H](O)[C@@H]1O` [digoxin], the “effect of co-administration of betrixaban on digoxin PK” value in data set [1] (7 days) is “no impact; also recorded: no effect”. In addition, in data set [1] (human, plasma, oral, digoxin median tmax, second value of pair (digoxin alone by order)), the Tmax was 1.01 h.

Turning to `CC(=O)N1CCN(c2ccc(OCC3COC(Cn4ccnc4)(c4ccc(Cl)cc4Cl)O3)cc2)CC1` (stereo not drawn) [ketoconazole], the “ketoconazole CL/F, mean (SD)” value is reported as 5.717 (2.373) L/h in data set [2] (Day 1) and 7.954 (7.110) L/h in data set [2] (Day-1). Besides, the “ketoconazole trough concentration, least squares geometric mean” value in data set [2] (Day 1 12 hours) came to 769 ng/mL; in data set [2] (Day 1 predose), 1030 ng/mL; in data set [2] (Day-1 predose), 1250 ng/mL. In addition, the “increased exposure of ketoconazole [Cmax and AUC(0-12)] when given with betrixaban” value in data set [2] (human, in vivo) is 21-22% and ~20%. The time of peak concentration (Tmax) was 2 h in data set [2] (human, plasma, oral) and 2 h in data set [2] (human, plasma, oral, 200 mg). Moreover, the exposure AUC(0-t) in data set [2] (human, plasma, oral, 200 mg, ketoconazole AUC(0-12), geometric LS mean, Treatment R: ketoconazole 200 mg alone) was 30900 ng·h/mL; in data set [2] (human, plasma, oral, 200 mg, ketoconazole plasma AUC(0-12), mean (SD), Day-1) it was 35300 ng·h/mL; in data set [2] (human, plasma, oral, ketoconazole AUC(0-12), geometric LS mean, Treatment T: ketoconazole 200 mg co-administered with 40-mg betrixaban) it was 37300 ng·h/mL. Also, the maximum concentration (Cmax) in data set [2] (human, plasma, oral, 200 mg, geometric LS mean, Treatment R: ketoconazole 200 mg alone) is 5260 ng/mL; in data set [2] (human, plasma, oral, 200 mg, mean (SD), Day-1), 5900 ng/mL; in data set [2] (human, plasma, oral, geometric LS mean, Treatment T: ketoconazole 200 mg co-administered with 40-mg betrixaban) it was 6420 ng/mL; in data set [2] (human, plasma, oral, mean (SD), Day 1 (day of betrixaban administration)) it was 6620 ng/mL. For the same molecule, the concentration at 12 h in data set [2] (human, plasma, oral, 200 mg, Day-1 12 hours) turned out to be 697 ng/mL.

The record behind these values is patent US20120095019A1 (priority 2010, published 2012).
